The values that follow are results of earlier work, collected in US20050009744A1, “Treatment of congestive heart failure” (priority 2001, published 2005).

The conditions of this data set: Lysko et al, J Cardiovasc Pharmacol 2000.

As for `COc1ccccc1OCCNCC(O)COc1cccc2[nH]c3ccccc3c12` (stereo not shown) [Carvedilol, carvedilol], the antioxidant activity result is on record as “far greater antioxidant activity than e.g. metoprolol”.
